Measured values as given in patent US20160108049A1 (TAKEDA Gmbh, priority 2011, published 2016).

Key:
[1] = molecular target: T1, PDE4B1 (Homo sapiens, UniProt Q07343); assay: Inhibition of PDE4 activity (PDE4B1, SPA assay); format: biochemical; settings: recombinant PDE4B1, 0.5 μM cAMP; read-out: PDE4B1 Inhibitory values measured as -logIC50 (converted)
T1 construct: made in house; host or cells: SF21 insect cells (baculovirus; virus made in SF9 cells, pCR-Bac vector)
Method: Method for Measuring Inhibition of PDE4 Activity
The PDE4B1 (GB no. L20966) was a gift of Prof. M. Conti (Stanford University, USA). It was amplified from the original plasmid (pCMV5) via PCR with primers Rb18 (5′-[…]-3′) and Rb10 (5′-[…]-3′) and cloned into the pCR-Bac vector (Invitrogen, Groningen, NL).
The recombinant baculovirus was prepared by means of homologous recombination in SF9 insect cells. The expression plasmids were cotransfected with Baculo-Gold DNA (Pharmingen, Hamburg) using a standard protocol (Pharmingen, Hamburg). Wt virus-free recombinant virus supernatants were selected using plaque assay methods. After that, high-titre virus supernatants were prepared by amplifying 3 times. PDE4B1 was expressed in SF21 cells by infecting 2×10^6 cells/ml with an MOI (multiplicity of infection) between 1 and 10 in the serum-free SF900 medium (GIBCO Life Technologies, Karlsruhe, Germany) The cells were cultured at 28° C. for 48-72 hours, after which they were pelleted for 5-10 min at 1000×g and 4° C.
The SF21 insect cells were resuspended, at a concentration of approx. 10^7 cells/ml, in ice-cold (4° C.) homogenization buffer (20 mM Tris, pH 8.2, containing the following additions: 140 mM NaCl, 3.8 mM KCl, 1 mM EGTA, 1 mM MgCl2, 10 mM β-mercaptoethanol, 2 mM benzamidine, 0.4 mM Pefablock, 10 μM leupeptin, 10 μM pepstatin A, 5 μM trypsin inhibitor) and disrupted by ultrasonication. The homogenate was then centrifuged for 10 min at 1000×g and the supernatant was stored at −80° C. until subsequent use (see below). The protein content was determined by the Bradford method (BioRad, Munich) using BSA (Bovine serum albumin) as the standard.
PDE4B1 activities were measured in a 96-well platform using SPA (scintillation proximity assay) yttrium silicate beads (RPNQ1050 from GE Healthcare). In a first step the PDE activity operated hydrolysis of either [^3H] cAMP (substrate) into […]. In a second step substrate and product were distinguished following addition of SPA yttrium silicate beads. […] Close proximity of bound [^3H] […] The test volume was 100 μl and finally contained 20 mM Tris buffer (pH 7.4), 0.1 mg/ml of BSA, 5 mM Mg^2+, 0.5 μM cAMP (including about 50,000 cpm of [3H]cAMP) as substrate, 1 μl of the respective substance dilution in DMSO and sufficient recombinant PDE (1000×g supernatant, see above) to ensure that 10-20% of the cAMP was converted under the said experimental conditions. […] After a preincubation of 5 min at 37° C., the reaction was commenced by adding the substrate (cAMP) and the assays were incubated for a further 15 min. Reactions were terminated by adding SPA beads (50 μl). In agreement with the manufacturer's instructions, the SPA beads had previously been resuspended in water, but were then diluted 1:3 (v/v) in water. This diluted solution further contained 3 mM IBMX (isobutylmethylxanthine) to ensure a complete block of PDE activity. Once the beads were sedimented (>30 min), the MTP's (micro titerplate) were analyzed in commercially available […]. The corresponding IC50 values of the compounds for inhibition of PDE4B1 activity were determined from the concentration-effect curves by means of non-linear regression.
(§1) The numbers of the compounds correspond to the numbers of the examples.

[2] = molecular target: T2, human PDE5 (Homo sapiens, UniProt O76074); assay: Inhibition of PDE5 activity (platelet lysate, SPA assay); format: biochemical; settings: 0.5 μM cGMP, read-out: PDE5 Inhibitory values measured as -logIC50 (converted)
T2 construct: from tissue; host or cells: human platelets from fresh donor blood (platelet lysate)
Method: Method for Measuring Inhibition of PDE5 Activity
As a source for human PDE5, platelets were used. For that purpose, 150 ml fresh blood from human donors anticoagulated with citrate [final concentration 0.3% (w/v)] was centrifuged at 200 g for 10 min to obtain the so-called platelet-rich-plasma (PRP) as a supernatant. […] After centrifugation (1,400 g, 10 min) the cell pellet was resuspended in 3 ml homogenization buffer (NaCl 140 mM, KCl 3.8 mM, EGTA (ethylene glycol tetraacetic acid) 1 mM, MgCl2 1 mM, Tris-HCl 20 mM, beta-mercaptoethanol 1 mM, pH 8.2) plus protease-inhibitor mix resulting in final concentrations of 0.5 mM Pefablock (Roche), 10 μM Leupeptin, 5 μM Trypsine inhibitor, 2 mM Benzamidin and 10 μM Pepstatin A. The suspension was sonicated and thereafter centrifuged for 15 min at 10,000 g. The resulting supernatant (platelet lysate) was used for enzymatic assays.
PDE5 activities were measured in a 96-well platform using SPA (scintillation proximity assay) yttrium silicate beads (RPNQ1050 from GE Healthcare). In a first step the PDE activity operated hydrolysis of either [^3H] cGMP (substrate) into [^3H] 5′GMP. In a second step substrate and product were distinguished following addition of SPA yttrium silicate beads. Indeed, in the presence of zinc sulphate the linear [^3H] […] Close proximity of bound [^3H] […] The test volume was 100 μl and contained 20 mM Tris buffer (pH 7.4), 0.1 mg of BSA (bovine serum albumin)/ml, 5 mM Mg^2+, 1 μM motapizone (PDE3 Inhibitor), 10 nM PDE2 inhibitor 2-(3,4-dimethoxybenzyl)-7-[(1R,2R)-2-hydroxy-1-(2-phenylethyl)propyl]-5-methylimidazo[5,1-f][1,2,4]triazin-4(3H)-one, 0.5 μM cGMP (cyclic guanosine monophosphate) (including about 50,000 cpm of [3H]cGMP as a tracer) (substrate), 1 μl of the respective compound dilution in dimethylsulfoxide (DMSO) and sufficient PDE5-containing platelet lysat (10,000×g supernatant, see above) to ensure that 10-20% of the cGMP was converted under the said experimental conditions. […] After a preincubation of 5 min at 37° C., the reaction was commenced by adding the substrate (cGMP) and the assay was incubated for a further 15 min. The reaction was terminated by adding SPA beads (50 μl). In agreement with the manufacturer's instructions, the SPA beads had previously been resuspended in water, but were then diluted 1:3 (v/v) in water. This diluted solution also contained 3 mM 8-methoxymethyl-3-isobutyl-1-methylxanthine (IBMX) to ensure a complete block of PDE activity. Once the beads were sedimented (>30 min), the MTP's were analyzed in commercially available luminescence detection devices. The corresponding IC50 values of the compounds for inhibition of PDE activity were determined from the concentration-effect curves by means of non-linear regression.
as §1

T1 sequence (Q07343 whole entry): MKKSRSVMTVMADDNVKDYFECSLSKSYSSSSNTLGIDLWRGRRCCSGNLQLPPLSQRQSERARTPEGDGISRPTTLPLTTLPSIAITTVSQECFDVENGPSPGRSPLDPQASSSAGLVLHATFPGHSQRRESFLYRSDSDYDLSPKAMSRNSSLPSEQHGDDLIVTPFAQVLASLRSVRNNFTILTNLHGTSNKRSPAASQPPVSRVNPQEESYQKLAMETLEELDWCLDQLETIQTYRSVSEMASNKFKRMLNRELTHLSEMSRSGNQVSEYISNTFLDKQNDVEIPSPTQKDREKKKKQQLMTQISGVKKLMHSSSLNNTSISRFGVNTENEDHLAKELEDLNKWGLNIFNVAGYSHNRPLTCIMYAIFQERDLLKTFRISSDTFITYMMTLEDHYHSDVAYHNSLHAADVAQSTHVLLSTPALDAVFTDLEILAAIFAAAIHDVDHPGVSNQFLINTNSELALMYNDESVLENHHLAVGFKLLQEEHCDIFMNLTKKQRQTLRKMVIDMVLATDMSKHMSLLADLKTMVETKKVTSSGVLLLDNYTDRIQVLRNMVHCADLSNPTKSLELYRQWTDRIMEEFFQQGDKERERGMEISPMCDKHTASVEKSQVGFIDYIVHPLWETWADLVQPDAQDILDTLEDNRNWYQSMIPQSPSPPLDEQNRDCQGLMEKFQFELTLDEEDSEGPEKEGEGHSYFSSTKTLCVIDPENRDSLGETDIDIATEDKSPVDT

Structure (SMILES)	IC50 [1] [nM]	IC50 [2] [nM]
COc1ccc(C2=NN(C3CCN(C(=O)[C@@H](Cc4cccc(C)c4)NC(=O)c4c(C)[nH]c5c(-c6c(OCC7CC7)ccc7c6OCO7)ncnc45)CC3)C(=O)[C@@H]3CCCC[C@H]23)cc1OC [Example 17, 4-[5-(cyclopropylmethoxy)-1,3-benzodioxol-4-yl]-N-[(2R)-1-{4-[(4aS,8aR)-4-(3,4-dimethoxyphenyl)-1-oxo-4a,5,6,7,8,8a-hexahydrophthalazin-2(1H)-yl]piperidin-1-yl}-3-(3-methylphenyl)-1-oxopropan-2-yl]-6-methyl-5H-pyrrolo[3,2-d]pyrimidine-7-carboxamide]	< 1	< 1
COc1ccc(C2=NN(C3CCN(C(=O)[C@@H](Cc4ccc(F)c(F)c4)NC(=O)c4c(C)[nH]c5c(-c6c(OCC7CC7)ccc7c6OCO7)ncnc45)CC3)C(=O)[C@@H]3CCCC[C@H]23)cc1OC [Example 18, 4-[5-(cyclopropylmethoxy)-1,3-benzodioxol-4-yl]-N-[(2R)-3-(3,4-difluorophenyl)-1-{4-[(4aS,8aR)-4-(3,4-dimethoxyphenyl)-1-oxo-4a,5,6,7,8,8a-hexahydrophthalazin-2(1H)-yl]piperidin-1-yl}-1-oxopropan-2-yl]-6-methyl-5H-pyrrolo[3,2-d]pyrimidine-7-carboxamide]	< 1	1 to 10
COc1ccc(C2=NN(C3CCN(C(=O)[C@@H](Cc4ccc(F)c(F)c4)NC(=O)c4c[nH]c5c(-c6c(OCC7CC7)ccc7c6OCO7)ncnc45)CC3)C(=O)[C@@H]3CCCC[C@H]23)cc1OC [Example 19, 4-[5-(cyclopropylmethoxy)-1,3-benzodioxol-4-yl]-N-[(2R)-3-(3,4-difluorophenyl)-1-{4-[(4aS,8aR)-4-(3,4-dimethoxyphenyl)-1-oxo-4a,5,6,7,8,8a-hexahydrophthalazin-2(1H)-yl]piperidin-1-yl}-1-oxopropan-2-yl]-5H-pyrrolo[3,2-d]pyrimidine-7-carboxamide]	1 to 10	1 to 10
COc1ccc(C2=NN(C3CCN(C(=O)[C@@H](Cc4cccc(C)c4)NC(=O)c4c[nH]c5c(-c6c(OCC7CC7)ccc7c6OCO7)ncnc45)CC3)C(=O)[C@@H]3CCCC[C@H]23)cc1OC [Example 20, 4-[5-(cyclopropylmethoxy)-1,3-benzodioxol-4-yl]-N-[(2R)-1-{4-[(4aS,8aR)-4-(3,4-dimethoxyphenyl)-1-oxo-4a,5,6,7,8,8a-hexahydrophthalazin-2(1H)-yl]piperidin-1-yl}-3-(3-methylphenyl)-1-oxopropan-2-yl]-5H-pyrrolo[3,2-d]pyrimidine-7-carboxamide]	1 to 10	< 1
COc1ccc(C2=NN(C3CCN(C(=O)[C@@H](Cc4ccc(C)cc4)NC(=O)c4c[nH]c5c(-c6c(OCC7CC7)ccc7c6OCO7)ncnc45)CC3)C(=O)[C@@H]3CCCC[C@H]23)cc1OC [Example 21, 4-[5-(cyclopropylmethoxy)-1,3-benzodioxol-4-yl]-N-[(2R)-1-{4-[(4aS,8aR)-4-(3,4-dimethoxyphenyl)-1-oxo-4a,5,6,7,8,8a-hexahydrophthalazin-2(1H)-yl]piperidin-1-yl}-3-(4-methylphenyl)-1-oxopropan-2-yl]-5H-pyrrolo[3,2-d]pyrimidine-7-carboxamide]	1 to 10	< 1
COc1cc(OCC2CC2)c(-c2ncnc3c(C(=O)N[C@H](Cc4ccccc4)C(=O)N4CCC(N5N=C(c6ccc(OC)c(OC)c6)[C@H]6CCCC[C@H]6C5=O)CC4)c(C)[nH]c23)cc1F [Example 22, 4-[2-(cyclopropylmethoxy)-5-fluoro-4-methoxyphenyl]-N-[(2R)-1-{4-[(4aS,8aR)-4-(3,4-dimethoxyphenyl)-1-oxo-4a,5,6,7,8,8a-hexahydrophthalazin-2(1H)-yl]piperidin-1-yl}-1-oxo-3-phenylpropan-2-yl]-6-methyl-5H-pyrrolo[3,2-d]pyrimidine-7-carboxamide]	1 to 10	1 to 10
